# Patent US4416884A, “Piperazinylbenzoheterocyclic compounds” (Otsuka Pharmaceutical Co., Ltd., priority 1978, dated 1983)
# Where two headings read alike, the source gives them in different places.
# Experiments:
# Assay in all cases: antimicrobial activity, serial dilution method on agar plate
# Type in all cases: cell-based
# [1] = system: Bacillus subtilis PCI 219
# Summary of the method: (§1)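 Two inoculum levels used: 1×10^8 cells/ml (O.D. 660 mμ = 0.07–0.16) and a diluted 1×10^6 cells/ml preparation. Minimum inhibitory concentrations in mcg/ml read from serial dilution on Heart Infusion agar plates.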
# [2] = system: Corinebacterium diphteriae
# Summary of the method: as §1
# [3] = system: Enterobacter aerogenes IFO 12979; conditions: Klebsiella aerogenes
# Summary of the method: as §1
# [4] = system: Enterobacter cloacae
# Summary of the method: as §1
# [5] = system: Escherichia Coli NIHJ JC-2 (IFO 12734); conditions: Escherichia coli, read-out: Minimum Inhibitory Concentration
# Summary of the method: as §1
# [6] = system: Escherichia Coli NIHJ
# Summary of the method: as §1
# [7] = system: Hafnia alvei IFO 3731
# Summary of the method: as §1
# [8] = system: Klebsiella pneumoniae ST-101
# Summary of the method: as §1
# [9] = system: Klebsiella pneumoniae
# Summary of the method: as §1
# [10] = system: Proteus morganii IID Kono; conditions: Morganella morganii
# Summary of the method: as §1
# [11] = system: Proteus rettgeri NIH 96; conditions: Providencia rettgeri
# Summary of the method: as §1
# [12] = system: Proteus vulgaris IID OX-19; conditions: read-out: Minimum Inhibitory Concentration
# Summary of the method: as §1
# [13] = system: Pseudomonas aeruginosa ATCC 10145
# Summary of the method: as §1
# [14] = system: Pseudomonas aeruginosa E-2
# Summary of the method: as §1
# [15] = system: Pseudomonas aeruginosa NCTC 10490
# Summary of the method: as §1
# [16] = system: Pseudomonas maltophilia IFO 12692; conditions: Stenotrophomonas maltophilia
# Summary of the method: as §1
# [17] = system: Pseudomonas putida IFO 13696
# Summary of the method: as §1
# [18] = system: Salmonella typhi 0-901 (NCTC 8393); conditions: Salmonella enterica
# Summary of the method: as §1
# [19] = system: Serattia marcescens IFO 12648
# Summary of the method: as §1
# [20] = system: Shigella Sonnei EW 33; conditions: read-out: Minimum Inhibitory Concentration
# Summary of the method: as §1
# [21] = system: Staphylococcus aureus FDA 209 P
# Summary of the method: as §1
# [22] = system: Streptococcus pneumoniae Type III
# Summary of the method: as §1
# [23] = system: Streptococcus pneumoniae Type II
# Summary of the method: as §1
# [24] = system: Streptococcus pneumoniae Type I
# Summary of the method: as §1
# [25] = system: Streptococcus pyogenes IID Cook
# Summary of the method: as §1
# [26] = system: Streptococcus pyogenes IID S-23
# Summary of the method: as §1
# [27] = system: Yersinia enterocolitica 0-3
# Summary of the method: as §1
# [28] = read-out: Minimum Inhibitory Concentration, inoculum 1 × 10^6 cells/ml
# [29] = read-out: Minimum Inhibitory Concentration, inoculum 1 × 10^8 cells/ml
# [30] = inoculum 1 × 10^6 cells/ml, read-out: Minimum Inhibitory Concentration
# [31] = inoculum 1 × 10^8 cells/ml, read-out: Minimum Inhibitory Concentration
compound,measurement,setting,value
CC1Cc2c(N3CCNCC3)ccc3c(=O)c(C(=O)O)cn1c23 (stereo not drawn) [C],MIC,"[1]; PCI219, read-out: Minimum Inhibitory Concentration, inoculum 1 × 10^6 cells/ml",3.1 µg/mL
same,MIC,"[1]; PCI219, read-out: Minimum Inhibitory Concentration, inoculum 1 × 10^8 cells/ml",3.1 µg/mL
same,MIC,[2]; [28],6.3 µg/mL
same,MIC,[2]; [29],25 µg/mL
same,MIC,"[3]; IFO12979, read-out: Minimum Inhibitory Concentration, inoculum 1 × 10^6 cells/ml",0.4 µg/mL
same,MIC,"[3]; IFO12979, read-out: Minimum Inhibitory Concentration, inoculum 1 × 10^8 cells/ml",0.8 µg/mL
same,MIC,[4]; [28],0.4 µg/mL
same,MIC,[4]; [29],0.8 µg/mL
same,MIC,[5],1.6 µg/mL
same,MIC,[6]; [28],0.4 µg/mL
same,MIC,[6]; [29],0.8 µg/mL
same,MIC,"[7]; IFO3731, read-out: Minimum Inhibitory Concentration, inoculum 1 × 10^6 cells/ml",0.8 µg/mL
same,MIC,"[7]; IFO3731, read-out: Minimum Inhibitory Concentration, inoculum 1 × 10^8 cells/ml",1.6 µg/mL
same,MIC,"[8]; ST101, read-out: Minimum Inhibitory Concentration, inoculum 1 × 10^6 cells/ml",0.2 µg/mL
same,MIC,"[8]; ST101, read-out: Minimum Inhibitory Concentration, inoculum 1 × 10^8 cells/ml",0.8 µg/mL
same,MIC,[9]; [28],0.8 µg/mL
same,MIC,[9]; [29],0.8 µg/mL
same,MIC,[10]; [28],3.1 µg/mL
same,MIC,[10]; [29],3.1 µg/mL
same,MIC,"[11]; NIH96, read-out: Minimum Inhibitory Concentration, inoculum 1 × 10^6 cells/ml",0.8 µg/mL
same,MIC,"[11]; NIH96, read-out: Minimum Inhibitory Concentration, inoculum 1 × 10^8 cells/ml",0.8 µg/mL
same,MIC,"[12]; IIDOX19, inoculum 1 × 10^6 cells/ml",0.8 µg/mL
same,MIC,"[12]; IIDOX19, inoculum 1 × 10^8 cells/ml",3.1 µg/mL
same,MIC,"[13]; ATCC10145, read-out: Minimum Inhibitory Concentration, inoculum 1 × 10^6 cells/ml",6.3 µg/mL
same,MIC,"[13]; ATCC10145, read-out: Minimum Inhibitory Concentration, inoculum 1 × 10^8 cells/ml",6.3 µg/mL
same,MIC,"[14]; E2, read-out: Minimum Inhibitory Concentration, inoculum 1 × 10^6 cells/ml",3.1 µg/mL
same,MIC,"[14]; E2, read-out: Minimum Inhibitory Concentration, inoculum 1 × 10^8 cells/ml",6.3 µg/mL
same,MIC,"[15]; NCTC10490, read-out: Minimum Inhibitory Concentration, inoculum 1 × 10^6 cells/ml",3.1 µg/mL
same,MIC,"[15]; NCTC10490, read-out: Minimum Inhibitory Concentration, inoculum 1 × 10^8 cells/ml",6.3 µg/mL
same,MIC,"[16]; IFO12692, read-out: Minimum Inhibitory Concentration",6.3 µg/mL
same,MIC,"[17]; IFO13696, read-out: Minimum Inhibitory Concentration, inoculum 1 × 10^6 cells/ml",3.1 µg/mL
same,MIC,"[17]; IFO13696, read-out: Minimum Inhibitory Concentration, inoculum 1 × 10^8 cells/ml",3.1 µg/mL
same,MIC,[18]; [30],0.2 µg/mL
same,MIC,[18]; [31],0.4 µg/mL
same,MIC,[19]; [28],1.6 µg/mL
same,MIC,[19]; [29],3.1 µg/mL
same,MIC,[20]; inoculum 1 × 10^6 cells/ml,1.6 µg/mL
same,MIC,[20]; inoculum 1 × 10^8 cells/ml,1.6 µg/mL
same,MIC,"[21]; FDA209, read-out: Minimum Inhibitory Concentration, inoculum 1 × 10^6 cells/ml",25 µg/mL
same,MIC,"[21]; FDA209, read-out: Minimum Inhibitory Concentration, inoculum 1 × 10^8 cells/ml",25 µg/mL
same,MIC,[22]; [28],50 µg/mL
same,MIC,[22]; [29],100 µg/mL
same,MIC,[23]; [28],50 µg/mL
same,MIC,[23]; [29],100 µg/mL
same,MIC,[24]; [28],50 µg/mL
same,MIC,[24]; [29],100 µg/mL
same,MIC,[25]; [28],25 µg/mL
same,MIC,[25]; [29],50 µg/mL
same,MIC,"[26]; IIDS23, read-out: Minimum Inhibitory Concentration, inoculum 1 × 10^6 cells/ml",50 µg/mL
same,MIC,"[26]; IIDS23, read-out: Minimum Inhibitory Concentration, inoculum 1 × 10^8 cells/ml",100 µg/mL
same,MIC,"[27]; Yersinia enterocolitica, 03, read-out: Minimum Inhibitory Concentration, inoculum 1 × 10^6 cells/ml",1.6 µg/mL
same,MIC,"[27]; Yersinia enterocolitica, 03, read-out: Minimum Inhibitory Concentration, inoculum 1 × 10^8 cells/ml",1.6 µg/mL
CC1CCc2cc(F)cc3c(=O)c(C(=O)O)cn1c23 (stereo not drawn) [F],MIC,"[1]; PCI219, inoculum 1 × 10^6 cells/ml, read-out: Minimum Inhibitory Concentration",0.2 µg/mL
same,MIC,"[1]; PCI219, inoculum 1 × 10^8 cells/ml, read-out: Minimum Inhibitory Concentration",0.4 µg/mL
same,MIC,[2]; [30],> 6.3 µg/mL
same,MIC,[2]; [31],> 25 µg/mL
same,MIC,"[3]; IFO12979, inoculum 1 × 10^6 cells/ml, read-out: Minimum Inhibitory Concentration",0.2 µg/mL
same,MIC,"[3]; IFO12979, inoculum 1 × 10^8 cells/ml, read-out: Minimum Inhibitory Concentration",0.4 µg/mL
same,MIC,[4]; [30],0.2 µg/mL
same,MIC,[4]; [31],0.4 µg/mL
same,MIC,[5]; inoculum 1 × 10^6 cells/ml,0.4 µg/mL
same,MIC,[5]; inoculum 1 × 10^8 cells/ml,0.8 µg/mL
same,MIC,[6]; [30],0.1 µg/mL
same,MIC,[6]; [31],0.2 µg/mL
same,MIC,"[7]; IFO3731, inoculum 1 × 10^6 cells/ml, read-out: Minimum Inhibitory Concentration",125 µg/mL
same,MIC,"[7]; IFO3731, inoculum 1 × 10^8 cells/ml, read-out: Minimum Inhibitory Concentration",25 µg/mL
same,MIC,"[8]; ST101, inoculum 1 × 10^6 cells/ml, read-out: Minimum Inhibitory Concentration",0.1 µg/mL
same,MIC,"[8]; ST101, inoculum 1 × 10^8 cells/ml, read-out: Minimum Inhibitory Concentration",0.2 µg/mL
same,MIC,[9]; [30],0.4 µg/mL
same,MIC,[9]; [31],0.8 µg/mL
same,MIC,[10]; [30],0.4 µg/mL
same,MIC,[10]; [31],0.8 µg/mL
same,MIC,"[11]; NIH96, inoculum 1 × 10^6 cells/ml, read-out: Minimum Inhibitory Concentration",0.1 µg/mL
same,MIC,"[11]; NIH96, inoculum 1 × 10^8 cells/ml, read-out: Minimum Inhibitory Concentration",0.2 µg/mL
same,MIC,"[13]; ATCC10145, inoculum 1 × 10^6 cells/ml, read-out: Minimum Inhibitory Concentration",12.5 µg/mL
same,MIC,"[13]; ATCC10145, inoculum 1 × 10^8 cells/ml, read-out: Minimum Inhibitory Concentration",25 µg/mL
same,MIC,"[14]; E2, inoculum 1 × 10^6 cells/ml, read-out: Minimum Inhibitory Concentration",50 µg/mL
same,MIC,"[14]; E2, inoculum 1 × 10^8 cells/ml, read-out: Minimum Inhibitory Concentration",50 µg/mL
same,MIC,"[15]; NCTC10490, inoculum 1 × 10^6 cells/ml, read-out: Minimum Inhibitory Concentration",12.5 µg/mL
same,MIC,"[15]; NCTC10490, inoculum 1 × 10^8 cells/ml, read-out: Minimum Inhibitory Concentration",25 µg/mL
same,MIC,"[16]; IFO12692, inoculum 1 × 10^8 cells/ml, read-out: Minimum Inhibitory Concentration",25 µg/mL
same,MIC,"[17]; IFO13696, inoculum 1 × 10^6 cells/ml, read-out: Minimum Inhibitory Concentration",125 µg/mL
same,MIC,"[17]; IFO13696, inoculum 1 × 10^8 cells/ml, read-out: Minimum Inhibitory Concentration",25 µg/mL
same,MIC,[18]; [28],0.2 µg/mL
same,MIC,[18]; [29],0.2 µg/mL
same,MIC,[19]; [30],0.4 µg/mL
same,MIC,[19]; [31],0.8 µg/mL
same,MIC,[20]; inoculum 1 × 10^6 cells/ml,0.8 µg/mL
same,MIC,[20]; inoculum 1 × 10^8 cells/ml,0.8 µg/mL
same,MIC,"[21]; FDA209, inoculum 1 × 10^6 cells/ml, read-out: Minimum Inhibitory Concentration",1.6 µg/mL
same,MIC,"[21]; FDA209, inoculum 1 × 10^8 cells/ml, read-out: Minimum Inhibitory Concentration",3.1 µg/mL
same,MIC,[22]; [31],> 100 µg/mL
same,MIC,[23]; [31],> 100 µg/mL
same,MIC,[24]; [31],> 100 µg/mL
same,MIC,[25]; [31],> 100 µg/mL
same,MIC,"[26]; IIDS23, inoculum 1 × 10^6 cells/ml, read-out: Minimum Inhibitory Concentration",> 100 µg/mL
same,MIC,"[26]; IIDS23, inoculum 1 × 10^8 cells/ml, read-out: Minimum Inhibitory Concentration",> 100 µg/mL
same,MIC,"[27]; Yersinia enterocolitica, 03, inoculum 1 × 10^6 cells/ml, read-out: Minimum Inhibitory Concentration",0.4 µg/mL
same,MIC,"[27]; Yersinia enterocolitica, 03, inoculum 1 × 10^8 cells/ml, read-out: Minimum Inhibitory Concentration",0.8 µg/mL
